Assay results published in PMC6834594, “Structure and regulation of ZCCHC4 in m^6A-methylation of 28S rRNA” (Nature Communications, 2019).

How the values were obtained:
[1] = target: T1, ZCCHC4_24-464 (Homo sapiens, UniProt Q9H5U6, K55A/E56A/E57A/K167A/K168A); assay: X-ray crystal structure, […] Å; type: binding; conditions: cofactor pocket of the MTase domain; no RNA
T1 construct: gene ZCCHC4; core fragment, residues 24-464, five surface mutations for crystallization; His6-SUMO tag cleaved by ULP1; E. coli BL21(DE3) RIL
T1 sequence (Q9H5U6 24-464 K55A/E56A/E57A/K167A/K168A): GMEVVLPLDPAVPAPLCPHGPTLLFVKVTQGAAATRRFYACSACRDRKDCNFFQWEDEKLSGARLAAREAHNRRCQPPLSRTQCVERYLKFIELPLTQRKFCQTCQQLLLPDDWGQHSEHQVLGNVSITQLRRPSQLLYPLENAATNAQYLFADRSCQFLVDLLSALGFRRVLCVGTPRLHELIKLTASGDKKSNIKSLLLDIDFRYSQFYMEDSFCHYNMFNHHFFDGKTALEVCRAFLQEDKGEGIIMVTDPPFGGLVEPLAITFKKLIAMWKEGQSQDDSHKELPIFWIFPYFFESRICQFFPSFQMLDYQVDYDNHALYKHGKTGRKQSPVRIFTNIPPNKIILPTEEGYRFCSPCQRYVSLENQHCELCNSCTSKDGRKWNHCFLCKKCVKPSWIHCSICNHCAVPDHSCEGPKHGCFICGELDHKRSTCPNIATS

[2] = target: T2, ZCCHC4_24-513 (Homo sapiens, UniProt Q9H5U6, H343A); assay: isothermal titration calorimetry; type: binding
T2 construct: gene ZCCHC4; residues 24-513; His6-SUMO tag cleaved by ULP1; E. coli BL21(DE3) RIL; monomer in solution
T2 sequence (Q9H5U6 24-513 H343A): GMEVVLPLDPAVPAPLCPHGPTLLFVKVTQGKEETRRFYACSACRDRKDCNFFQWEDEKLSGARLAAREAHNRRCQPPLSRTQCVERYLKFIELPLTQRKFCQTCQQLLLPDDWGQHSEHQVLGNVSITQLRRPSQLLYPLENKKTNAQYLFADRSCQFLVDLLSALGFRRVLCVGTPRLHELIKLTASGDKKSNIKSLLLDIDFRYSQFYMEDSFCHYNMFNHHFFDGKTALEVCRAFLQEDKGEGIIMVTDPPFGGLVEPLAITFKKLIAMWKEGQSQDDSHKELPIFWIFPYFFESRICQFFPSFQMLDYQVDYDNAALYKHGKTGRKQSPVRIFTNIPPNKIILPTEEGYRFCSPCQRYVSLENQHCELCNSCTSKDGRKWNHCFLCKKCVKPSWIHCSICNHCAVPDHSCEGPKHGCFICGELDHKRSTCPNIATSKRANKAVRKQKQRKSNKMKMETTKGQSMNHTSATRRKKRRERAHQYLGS

[3] = target: T3, ZCCHC4_24-513 (Homo sapiens, UniProt Q9H5U6); assay: isothermal titration calorimetry; type: binding
T3 construct: gene ZCCHC4; residues 24-513; His6-SUMO tag cleaved by ULP1; E. coli BL21(DE3) RIL; monomer in solution
T3 sequence (Q9H5U6 24-513): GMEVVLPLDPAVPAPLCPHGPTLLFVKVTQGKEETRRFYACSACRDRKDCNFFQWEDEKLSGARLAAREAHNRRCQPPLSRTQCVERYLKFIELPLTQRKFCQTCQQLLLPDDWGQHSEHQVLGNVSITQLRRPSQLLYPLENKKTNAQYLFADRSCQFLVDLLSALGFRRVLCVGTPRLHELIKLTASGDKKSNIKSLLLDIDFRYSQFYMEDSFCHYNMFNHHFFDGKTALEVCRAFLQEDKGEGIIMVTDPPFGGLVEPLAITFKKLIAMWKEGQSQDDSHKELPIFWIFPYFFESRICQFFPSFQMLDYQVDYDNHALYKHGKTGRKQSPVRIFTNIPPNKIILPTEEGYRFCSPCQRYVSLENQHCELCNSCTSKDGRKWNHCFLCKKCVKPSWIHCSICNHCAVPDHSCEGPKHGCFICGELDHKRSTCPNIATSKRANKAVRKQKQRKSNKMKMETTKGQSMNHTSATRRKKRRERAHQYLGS

[4] = target: T4, ZCCHC4 24-464 WT (core) (human, UniProt Q9H5U6 24-464); assay: EMSA; EMSA: 20 mM Tris-HCl pH 7.5, 100 mM NaCl, 5% glycerol, 1 mM DTT, 4 C, 1 h; 0.3 uM RNA with 0-1.2 uM protein unless noted; 6% TBE native gel; conditions: protein: recombinant; tags: His6-SUMO removed by ULP1; label: none (SYBR Gold stain); stem-loop with tail
T4 sequence: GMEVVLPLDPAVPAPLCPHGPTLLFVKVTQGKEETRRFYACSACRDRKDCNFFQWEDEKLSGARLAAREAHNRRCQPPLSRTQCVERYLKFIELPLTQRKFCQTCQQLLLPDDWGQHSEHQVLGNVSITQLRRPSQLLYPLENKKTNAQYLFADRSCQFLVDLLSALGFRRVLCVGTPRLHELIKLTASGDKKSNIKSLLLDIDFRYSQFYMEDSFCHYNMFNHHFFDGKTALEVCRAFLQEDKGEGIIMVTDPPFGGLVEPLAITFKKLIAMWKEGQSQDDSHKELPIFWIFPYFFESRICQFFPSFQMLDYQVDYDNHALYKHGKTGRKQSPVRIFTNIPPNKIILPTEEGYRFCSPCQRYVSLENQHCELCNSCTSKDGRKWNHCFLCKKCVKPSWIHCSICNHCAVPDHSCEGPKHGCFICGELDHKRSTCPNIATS

For `Nc1ncnc2c1ncn2[C@@H]1O[C@H](CSCC[C@H](N)C(=O)O)[C@@H](O)[C@H]1O` [SAH], the “X-ray crystal structure, 3.1 Å” value [1] was “in complex with S-adenosyl-L-homocysteine (SAH)”.

`C[S+](CC[C@H](N)C(=O)O)C[C@H]1O[C@@H](n2cnc3c(N)ncnc32)[C@H](O)[C@@H]1O` (stereo partly shown) [SAM] gave a Kd [2] of 1.6 µM and a Kd [3] of 6.7 µM.

CGGUACACCUGUCAAACGGUAACGCAGGUG (structured_RNA) [30-mer 28S rRNA]: binds [4].
